Blank lines part the entries; values can stand above or below the molecule they belong to.
Tests used:
[1] = test system: HEK293T cells; conditions: treated HEK293 cells, Cell-TiterGlo
[2] = molecular target: T1, VDR-LBD / Alexa Fluor-SRC2-3 coactivator peptide (Homo sapiens, UniProt P11473, DEL165-215); assay: VDR-coactivator binding fluorescence polarization assay, agonistic binding; conditions: without LG190178
T1 sequence (P11473 with tags, fused parts or gaps DEL165-215 limits assumed): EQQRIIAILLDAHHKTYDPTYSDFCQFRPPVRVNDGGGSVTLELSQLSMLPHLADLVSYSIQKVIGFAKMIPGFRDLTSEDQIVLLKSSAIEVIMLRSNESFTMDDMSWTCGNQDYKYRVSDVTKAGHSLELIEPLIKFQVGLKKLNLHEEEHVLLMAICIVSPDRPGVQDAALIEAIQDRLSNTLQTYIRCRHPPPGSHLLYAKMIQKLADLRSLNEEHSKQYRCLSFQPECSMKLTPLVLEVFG

[3] = molecular target: T1, VDR-LBD / Alexa Fluor-SRC2-3 coactivator peptide; assay: VDR-coactivator binding fluorescence polarization assay, competitive inhibition
[4] = molecular target: T2, VP16-VDR-LBD / SRC1-GAL4 (Homo sapiens, UniProt P11473); assay: Two-hybrid assay in HEK293T cells, inhibition in the presence of 10 nM 1,25; format: cell-based; conditions: 10 nM 1,25(OH)2D3
T2 sequence (P11473 127-423 limits assumed): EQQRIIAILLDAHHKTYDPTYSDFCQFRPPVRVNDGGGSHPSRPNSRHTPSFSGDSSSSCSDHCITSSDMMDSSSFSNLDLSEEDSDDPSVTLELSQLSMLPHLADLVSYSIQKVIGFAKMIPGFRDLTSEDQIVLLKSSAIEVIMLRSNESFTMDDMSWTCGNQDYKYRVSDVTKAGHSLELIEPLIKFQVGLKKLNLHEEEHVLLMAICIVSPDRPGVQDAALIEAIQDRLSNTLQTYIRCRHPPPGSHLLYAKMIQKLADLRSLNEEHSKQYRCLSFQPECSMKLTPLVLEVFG

[5] = molecular target: T3, PPARα-Gal4 (Homo sapiens, UniProt Q07869); format: cell-based; conditions: HEK293 cells, luminescence
T3 sequence (Q07869 1-468): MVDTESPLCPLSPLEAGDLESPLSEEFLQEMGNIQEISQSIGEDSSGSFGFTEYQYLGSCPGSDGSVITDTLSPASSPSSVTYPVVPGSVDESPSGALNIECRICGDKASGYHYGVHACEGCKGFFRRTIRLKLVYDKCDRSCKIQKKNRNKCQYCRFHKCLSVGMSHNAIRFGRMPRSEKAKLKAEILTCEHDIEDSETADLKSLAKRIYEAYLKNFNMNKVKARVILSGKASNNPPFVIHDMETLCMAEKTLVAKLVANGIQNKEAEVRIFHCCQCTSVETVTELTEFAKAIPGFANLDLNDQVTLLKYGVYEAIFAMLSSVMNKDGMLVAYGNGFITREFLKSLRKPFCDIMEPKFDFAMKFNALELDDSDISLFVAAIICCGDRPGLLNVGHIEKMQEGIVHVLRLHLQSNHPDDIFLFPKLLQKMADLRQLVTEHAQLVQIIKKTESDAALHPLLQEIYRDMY

[6] = test system: VDR target gene CYP24A1; assay: CYP24A1 gene regulation in DU145 cells by qRT-PCR; format: cell-based; conditions: 7.5 μM, with 20 nM 1,25(OH)2D3, 18 hours
[7] = test system: VDR; conditions: cited from earlier work
[8] = molecular target: T2, VP16-VDR-LBD / SRC1-GAL4; assay: Two-hybrid assay in HEK293T cells, agonist mode; format: cell-based

Compound: C[C@H](CCC(=O)O)[C@H]1CC[C@H]2[C@@H]3[C@H](O)C[C@@H]4C[C@H](O)CC[C@]4(C)[C@H]3CC[C@]12C [CDCA, chenodeoxycholic acid]
Toxicity LD50 [1]: >150 µM

VDR-LBD recruitment of SRC2-3 coactivator peptide (in words) [2]: not able to support
Potency of VDR-SRC2-3 inhibition relative to LCA ([3]; ratio of IC50 values): approximately six times more potent
Compound: C=C1/C(=C\C=C2/CCC[C@]3(C)[C@@H]([C@H](C)CC(=O)O)CC[C@@H]23)C[C@@H](O)C[C@@H]1O [Calcitroic Acid, calcitroic acid]

Compound: CC(=O)O[C@@H]1CC[C@@]2(C)[C@H](CC[C@@H]3[C@@H]2CC[C@]2(C)[C@@H]([C@H](C)CCC(=O)O)CC[C@@H]32)C1 [LCA Acetate]
VDR-LBD recruitment of SRC2-3 coactivator peptide (in words) [2]: not able to support
Inhibition of VDR-SRC1 binding in the presence of 1,25(OH)2D3 (in words) [4]: No inhibition

Compound: C[C@H](CCC(=O)O)[C@H]1CC[C@H]2[C@@H]3CC[C@@H]4C[C@H](O[C@@H]5O[C@H](C(=O)O)[C@@H](O)[C@H](O)[C@H]5O)CC[C@]4(C)[C@H]3CC[C@]12C [LCA Gluc I, lithocholic acid glucuronide I]
Activation of transcription for the PPARα-Gal4 system [5]: no activation of transcription
Inhibition of VDR-SRC1 binding in the presence of 1,25(OH)2D3 (in words) [4]: no inhibition

Compound: C[C@H](CCC(=O)O[C@@H]1O[C@H](C(=O)O)[C@@H](O)[C@H](O)[C@H]1O)[C@H]1CC[C@H]2[C@@H]3CC[C@@H]4C[C@H](O)CC[C@]4(C)[C@H]3CC[C@]12C [LCA Gluc II, lithocholic acid glucuronide II]
Activation of transcription for the PPARα-Gal4 system [5]: no activation of transcription
Inhibition of VDR-SRC1 binding in the presence of 1,25(OH)2D3 (in words) [4]: no inhibition
Induction of CYP24A1 in the presence of 1,25(OH)2D3 (in words) [6]: more pronounced

Compound: C[C@H](CCC(=O)O)[C@H]1CC[C@H]2[C@@H]3CC[C@@H]4C[C@H](O)CC[C@]4(C)[C@H]3CC[C@]12C [LCA, lithocholic acid]
Reported cellular activity [7]: approximately 10 μM

Compound: COC(=O)CC[C@@H](C)[C@H]1CC[C@H]2[C@@H]3CC[C@@H]4C[C@H](O)CC[C@]4(C)[C@H]3CC[C@]12C [LCME, lithocholic acid methyl ester]
VDR-LBD recruitment of SRC2-3 coactivator peptide (in words) [2]: not able to support
Activation in the cellular VDR-SRC1 2-hybrid assay (in words) [8]: did not activate transcription
Inhibition of VDR-SRC2-3 binding (in words) ([3]; fluorescence polarization, with LG190178): inactive

Compound: C[C@H](CCC(=O)O)[C@H]1CC[C@H]2[C@@H]3[C@@H](O)C[C@@H]4C[C@H](O)CC[C@]4(C)[C@H]3CC[C@]12C [UDCA, ursodeoxycholic acid]
Toxicity LD50 [1]: >150 µM
